From ChEMBL document CHEMBL1146841, “Discovery of thiochroman derivatives bearing a carboxy-containing side chain as orally active pure antiestrogens” (Bioorg Med Chem Lett, 2006) come the findings set out here.

For series [1], the system named is Mus musculus. The experiment in a line: Antagonist activity assessed as inhibition of estrogen-stimulated uterine weight gain in ovariectomized mouse at 3 mg/kg, po. Type of series: functional.
Series [2] addresses T1, Estrogen receptor (Homo sapiens) (UniProt P03372).
T1 sequence (whole entry): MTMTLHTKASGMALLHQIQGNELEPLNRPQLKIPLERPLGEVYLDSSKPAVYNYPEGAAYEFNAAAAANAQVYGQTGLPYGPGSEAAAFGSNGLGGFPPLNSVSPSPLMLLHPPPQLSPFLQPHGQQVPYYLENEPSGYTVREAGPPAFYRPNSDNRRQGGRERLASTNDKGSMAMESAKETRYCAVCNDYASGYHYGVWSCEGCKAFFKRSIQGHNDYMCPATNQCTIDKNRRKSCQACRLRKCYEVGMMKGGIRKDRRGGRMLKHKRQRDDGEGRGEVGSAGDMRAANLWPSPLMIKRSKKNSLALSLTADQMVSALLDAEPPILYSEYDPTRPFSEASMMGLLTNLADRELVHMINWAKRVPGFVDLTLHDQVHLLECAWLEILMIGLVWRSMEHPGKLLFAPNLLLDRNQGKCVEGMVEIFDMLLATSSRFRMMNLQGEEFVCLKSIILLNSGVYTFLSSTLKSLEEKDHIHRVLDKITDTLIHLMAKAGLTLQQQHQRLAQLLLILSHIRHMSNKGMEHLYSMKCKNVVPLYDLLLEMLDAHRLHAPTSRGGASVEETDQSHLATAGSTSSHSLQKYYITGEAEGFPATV
Nature of the series: Displacement of [3H]estradiol from human recombinant ERalpha relative to estradiol.

Series [3] relates to Mus musculus. Nature of the series: Antagonist activity assessed as inhibition of estrogen-stimulated uterine weight gain in ovariectomized mouse at 10 mg/kg, po. Type of series: functional.
For series [4], the system named is Mus musculus. Nature of the series: Antagonist activity assessed as inhibition of estrogen-stimulated uterine weight gain in ovariectomized mouse at 30 mg/kg, po. Type of series: functional.
For series [5], the system named is Mus musculus. Nature of the series: Agonist activity assessed as increase in uterine weight in ovariectomized mouse at 10 mg/kg, sc. Type of series: functional. The settings on record: route subcutaneous.
For series [6], the system named is Mus musculus. The experiment in a line: Antagonist activity assessed as inhibition of estrogen-stimulated uterine weight gain in ovariectomized mouse at 10 mg/kg, sc. Type of series: functional. Particulars: route subcutaneous.
A short description of series [7]: AUC in duodenally dosed Sprague-Dawley rat peripheral blood at 10 mg/kg. Type of series: ADME, organism-based. Details: dose 10 mg/kg, route intraduodenal.
Series [8] can be described thus: Bioavailability in Sprague-Dawley rat. In kind it is ADME, organism-based. Particulars: in vivo.
The test system of series [9] is Rattus norvegicus. Nature of the series: AUC in Sprague-Dawley rat at 10 mg/kg, iv. In kind it is ADME, organism-based, Plasma. Details: dose 10 mg/kg, route intravenous. Particulars: in vivo.
The nature of series [10]: AUC in duodenally dosed Sprague-Dawley rat portal vein at 10 mg/kg. In kind it is ADME, organism-based. Details: dose 10 mg/kg, route intraduodenal. Particulars: portal vein plasma.
For series [11], the system named is Rattus norvegicus. The experiment in a line: (§1) AUC in Sprague-Dawley rat at 20 mg/kg, po. Type of series: ADME, organism-based, Plasma. Set-up: dose 20 mg/kg, route oral. Particulars: in vivo.
For series [12], the system named is Mus musculus. The experiment in a line: Antagonist activity assessed as inhibition of estrogen-stimulated uterine weight gain in ovariectomized mouse at 50 mg/kg, po. Type of series: functional.
Series [13] can be described thus: as §1. The settings on record: Sprague-Dawley, plasma. Type of series: ADME, organism-based, Plasma. Set-up: dose 20 mg/kg, route oral.

As for `C[C@]1(c2ccc(O)cc2)CSc2cc(O)ccc2[C@H]1CCCCCCCCCC(CCC(F)(F)C(F)(F)C(F)(F)C(F)(F)F)C(=O)O` (some centres undefined), the inhibition in vivo at 3 mg/kg in the series with Mus musculus [1] was determined as 38%. Moreover, the RBA in series [2] turned out to be 0.3%. The inhibition in vivo at 10 mg/kg with Mus musculus [3] was 85%. In the series on Mus musculus [4], the inhibition in vivo at 30 mg/kg turned out to be 99%.
Regarding `C[C@]1(c2ccc(O)cc2)CSc2cc(O)ccc2[C@H]1CCCCCCCCC(CCCC(F)(F)C(F)(F)C(F)(F)C(F)(F)F)C(=O)O` (some centres undefined), the inhibition in vivo at 3 mg/kg in the series with Mus musculus [1] was found to be 61%. For the same molecule, the RBA in [2] worked out at 0.3%. For the same molecule, the inhibition in vivo at 10 mg/kg with Mus musculus [3] was 93%. The inhibition in vivo at 30 mg/kg in the series on Mus musculus [4] came to 99%.
With `C[C@]1(c2ccc(O)cc2)CSc2cc(O)ccc2[C@H]1CCCCCCCCCNC(=O)NS(=O)(=O)CCCC(F)(F)C(F)(F)F`, the Activity with Mus musculus [5] is recorded as 8%. The RBA in series [2] amounted to 1.2%. Moreover, the inhibition in vivo at 10 mg/kg in the series on Mus musculus [6] turned out to be 33%.
`C[C@]1(c2ccc(O)cc2)CSc2cc(O)ccc2[C@H]1CCCCCCCCC(CCCCCC(F)(F)C(F)(F)F)C(=O)O` (some centres undefined): the inhibition in vivo at 3 mg/kg with Mus musculus [1] is 52%. Further, the RBA in series [2] worked out at 0.8%. Besides, the inhibition in vivo at 10 mg/kg with Mus musculus [3] was 86%. Besides, the inhibition in vivo at 30 mg/kg in the series with Mus musculus [4] was 94%.
The corresponding values for `C[C@]1(c2ccc(O)cc2)CSc2cc(O)ccc2[C@H]1CCCCCCCCCC(CCCC(F)(F)C(F)(F)C(F)(F)C(F)(F)F)C(=O)O` (some centres undefined) are 55%, 0.4%, 86% and 100%.
The corresponding values for `C[C@]1(c2ccc(O)cc2)CSc2cc(O)ccc2[C@H]1CCCCCCCCCC(CCCCC(F)(F)C(F)(F)F)C(=O)O` (some centres undefined) are 53%, 0.2%, 79% and 96%.
Consider `C[C@]1(c2ccc(O)cc2)COc2cc(O)ccc2[C@H]1CCCCCCCCCNC(=O)NCCCC(F)(F)C(F)(F)F`, for which, in the series on Mus musculus [5], the Activity turned out to be 10%. In [2], the RBA was 57%. In addition, the inhibition in vivo at 10 mg/kg amounted to 77% in the series on Mus musculus [6] and 1% in the series on Mus musculus [3].
For `C[C@]1(c2ccc(O)cc2)CSc2cc(O)ccc2[C@H]1CCCCCCCCC(CCCC(F)(F)C(F)(F)F)C(=O)O` (some centres undefined), the AUC turned out to be 2040 ng·h/mL in series [7], 228000 ng·h/mL in the series on Rattus norvegicus [9], 2510 ng·h/mL in series [10] and 209000 ng·h/mL in the series on Rattus norvegicus [11]. The Activity with Mus musculus [5] is 1%. Also, the inhibition in vivo at 3 mg/kg in the series with Mus musculus [1] came to 41%. In addition, in [2], the RBA is 0.8%. Moreover, the inhibition in vivo at 10 mg/kg in the series with Mus musculus [6] was 95%; in the series on Mus musculus [3], 77%. Besides, the bioavailability in [8] came to 46%. Also, the inhibition in vivo at 30 mg/kg with Mus musculus [4] amounted to 94%.
With `COC(=O)C(CCCCCCCC[C@@H]1c2ccc(O)cc2SC[C@]1(C)c1ccc(O)cc1)CCCC(F)(F)C(F)(F)F` (some centres undefined), in the series on Mus musculus [5], the Activity is -1%. For the same molecule, the RBA in series [2] turned out to be 7%. For the same molecule, the inhibition in vivo at 10 mg/kg with Mus musculus [6] is 52%; in the series with Mus musculus [3], 40%.
Consider `C[C@]1(c2ccc(O)cc2)CSc2cc(O)ccc2[C@H]1CCCCCCCC(CCCC(F)(F)C(F)(F)F)C(=O)O` (some centres undefined), for which the RBA in [2] amounted to 0.5%. Moreover, the inhibition in vivo at 10 mg/kg in the series on Mus musculus [3] was 20%.
Regarding `C[C@]1(c2ccc(O)cc2)CSc2cc(O)ccc2[C@H]1CCCCCCCCCNS(=O)(=O)CCCC(F)(F)C(F)(F)F`, the Activity with Mus musculus [5] turned out to be 3%. The RBA in [2] turned out to be 52%. In addition, the inhibition in vivo at 10 mg/kg with Mus musculus [6] is 99%; in the series on Mus musculus [3], 31%. For the same molecule, in the series on Mus musculus [12], the inhibition in vivo at 50 mg/kg is 73%.
With `C[C@]1(c2ccc(O)cc2)COc2cc(O)ccc2[C@H]1CCCCCCCCC[S+]([O-])CCCC(F)(F)C(F)(F)F` (some centres undefined), in the series on Mus musculus [5], the Activity stood at 1%. For the same molecule, the RBA in [2] is 96%. The values for the inhibition in vivo at 10 mg/kg in the series with Mus musculus [6] and in the series on Mus musculus [3] were 94% and 66%, respectively. The inhibition in vivo at 50 mg/kg in the series with Mus musculus [12] stood at 88%.
Consider `C[C@]1(c2ccc(O)cc2)COc2cc(O)ccc2[C@H]1CCCCCCCCCNS(=O)(=O)NCCCC(F)(F)C(F)(F)F`, for which the Activity in the series with Mus musculus [5] amounted to 1%. The RBA in [2] was 42%. In addition, the inhibition in vivo at 10 mg/kg turned out to be 100% in the series with Mus musculus [6] and 41% in the series on Mus musculus [3]. Further, in the series on Mus musculus [12], the inhibition in vivo at 50 mg/kg is 69%.
For the molecule `C[C@]1(c2ccc(O)cc2)CSc2cc(O)ccc2[C@H]1CCCCCCCCC(CCCCC(F)(F)C(F)(F)F)C(=O)O` (some centres undefined), in the series on Mus musculus [1], the inhibition in vivo at 3 mg/kg was 69%. Also, the RBA in [2] turned out to be 1.3%. Besides, the inhibition in vivo at 10 mg/kg with Mus musculus [3] came to 87%. Further, the inhibition in vivo at 30 mg/kg in the series on Mus musculus [4] was found to be 97%.
For the molecule `C[C@]1(c2ccc(O)cc2)CSc2cc(O)ccc2[C@H]1CCCCCCCCCC(CCCC(F)(F)C(F)(F)F)C(=O)O` (some centres undefined), in the series on Mus musculus [1], the inhibition in vivo at 3 mg/kg came out at 45%. Also, the RBA in series [2] stood at 0.9%. Also, the inhibition in vivo at 10 mg/kg in the series with Mus musculus [3] is 81%.
For the molecule `C[C@]12CC[C@@H]3c4ccc(O)cc4C[C@@H](CCCCCCCCC[S+]([O-])CCCC(F)(F)C(F)(F)F)[C@H]3[C@@H]1CC[C@@H]2O` (some centres undefined) [FULVESTRANT], the AUC in [7] stood at 7 ng·h/mL; with Rattus norvegicus [9] it was 5300 ng·h/mL; in series [10], 56 ng·h/mL; with Rattus norvegicus [11], 1670 ng·h/mL. The Activity with Mus musculus [5] was -1%. In the series with Mus musculus [1], the inhibition in vivo at 3 mg/kg came to 29%. The RBA in [2] came out at 138%. Besides, the values for the inhibition in vivo at 10 mg/kg in the series with Mus musculus [6] and in the series with Mus musculus [3] were 95% and 54%, respectively. Further, in [8], the bioavailability stood at 16%. Also, the inhibition in vivo at 50 mg/kg in the series on Mus musculus [12] is 86%. Also, in the series on Mus musculus [4], the inhibition in vivo at 30 mg/kg came to 72%.
Take `C[C@]1(c2ccc(O)cc2)CSc2cc(O)ccc2[C@H]1CCCCCCCCC(CCC(F)(F)C(F)(F)C(F)(F)C(F)(F)F)C(=O)O` (some centres undefined): in the series with Mus musculus [1], the inhibition in vivo at 3 mg/kg was 63%. Also, in series [2], the RBA was found to be 0.6%. Besides, the inhibition in vivo at 10 mg/kg in the series on Mus musculus [3] amounted to 93%. In addition, in the series with Mus musculus [4], the inhibition in vivo at 30 mg/kg turned out to be 96%.
With `C[C@]1(c2ccc(O)cc2)CSc2cc(O)ccc2[C@H]1CCCCCCCCC[S+]([O-])CCCC(F)(F)C(F)(F)F` (some centres undefined), the AUC was found to be 13 ng·h/mL in series [7], 8220 ng·h/mL with Rattus norvegicus [9], 88 ng·h/mL in series [10] and 3590 ng·h/mL in series [13]. In the series with Mus musculus [5], the Activity is reported as -2%. In addition, the RBA in [2] was 200%. The inhibition in vivo at 10 mg/kg with Mus musculus [6] is 101%; with Mus musculus [3] it was 51%. This molecule returned a bioavailability in series [8] of 22%. In the series on Mus musculus [12], the inhibition in vivo at 50 mg/kg worked out at 94%.
Regarding `C[C@]1(c2ccc(O)cc2)CSc2cc(O)ccc2[C@H]1CCCCCCCCCCC(CCCC(F)(F)C(F)(F)F)C(=O)O` (some centres undefined), the RBA in series [2] stood at 0.2%. Besides, the inhibition in vivo at 10 mg/kg in the series with Mus musculus [3] was found to be 62%.
